The text below walks through data of ChEMBL document CHEMBL3826937, “Synthesis, 3D-QSAR analysis and biological evaluation of quinoxaline 1,4-di-N-oxide derivatives as antituberculosis agents” (Bioorg Med Chem Lett, 2016).

The structures appear in SMILES notation. In brackets after ≈: the same amount, converted by molar mass. A value given as a limit tells only on which side of the number the result lay.

Data set [1] relates to Mycobacterium tuberculosis. Kind of data set: Antimycobacterial activity against Mycobacterium tuberculosis H37Rv ATCC 27294 incubated for 5 days by microplate alamar blue assay. The format is functional. Particulars: H37Rv ATCC 27294, 120 h. (In general: The colour change of resazurin is a common sign of viable cells or microbes.)
Data set [2] is described as follows: Selectivity index, ratio of CC50 for African green monkey Vero cells to MIC for Mycobacterium tuberculosis H37Rv ATCC 27294. The format is toxicity, cell-based. Conditions: read-out: Selectivity Index.
Data set [3] can be described thus: Cytotoxicity against African green monkey Vero cells assessed as reduction in cell viability after 72 hrs by MTT assay. Conditions: chlorocebus sabaeus. The format is cell-based.

A word on the MIC: it is the lowest concentration that inhibits growth of the organism. A word on the CC50: it is the concentration at which the toxic effect on the cells reaches its halfway point.

In data set [1], `Cc1c(C(=O)CSCCNC(=O)c2cccs2)[n+]([O-])c2ccccc2[n+]1[O-]` came in with an MIC of 6.25 µg/mL (≈ 15.5 µM). Moreover, in data set [2], the selectivity ratio is > 16. Also, the CC50 at 72 h in data set [3] is > 100 µg/mL. The molecule `Cc1c(C(=O)CSc2nc[nH]n2)[n+]([O-])c2ccccc2[n+]1[O-]` had an MIC in data set [1] of 0.39 µg/mL (≈ 1.23 µM). Also, in data set [2], the selectivity ratio amounted to 128. The CC50 at 72 h in data set [3] came out at 50 µg/mL (≈ 158 µM). Molecule `CC(=O)NCCSCC(=O)c1c(C)[n+]([O-])c2ccccc2[n+]1[O-]` registered an MIC in data set [1] of 50 µg/mL (≈ 149 µM). Take `Cc1c(C(=O)CSc2ccc(F)cc2)[n+]([O-])c2ccccc2[n+]1[O-]`: the MIC in data set [1] was found to be 0.39 µg/mL (≈ 1.13 µM). For the same molecule, the selectivity ratio in data set [2] is 128. Further, the CC50 at 72 h in data set [3] is 50 µg/mL (≈ 145 µM). In data set [1], `Cc1c(C(=O)CN(C)C2CCCCC2)[n+]([O-])c2ccccc2[n+]1[O-]` gave an MIC of 50 µg/mL (≈ 152 µM). In turn, `Cc1ccc(SCC(=O)c2c(C)[n+]([O-])c3ccccc3[n+]2[O-])cc1` returned a minimum inhibitory concentration (MIC) in data set [1] of 0.78 µg/mL (≈ 2.29 µM). The selectivity ratio in data set [2] is 64. The CC50 at 72 h in data set [3] was determined as 50 µg/mL (≈ 147 µM). `Cc1c(C(=O)CSCCNC(=O)C2CCCCC2)[n+]([O-])c2ccccc2[n+]1[O-]` showed an MIC in data set [1] of 12.5 µg/mL (≈ 31 µM). On to `Cc1c(C(=O)CSc2nc3ccccc3o2)[n+]([O-])c2ccccc2[n+]1[O-]`, for which, in data set [1], inhibition of growth (MIC) required 3.13 µg/mL (≈ 8.52 µM). For the same molecule, in data set [2], the selectivity ratio was found to be 16. In data set [3], the CC50 at 72 h was 50 µg/mL (≈ 136 µM). In data set [1], `COc1ccc(SCC(=O)c2c(C)[n+]([O-])c3ccccc3[n+]2[O-])cc1` had an MIC of 0.78 µg/mL (≈ 2.19 µM). For the same molecule, the selectivity ratio in data set [2] amounted to 64. Moreover, the CC50 at 72 h in data set [3] worked out at 50 µg/mL (≈ 140 µM). On the same counts, the results for `Cc1c(C(=O)CN(C)c2ccc(F)cc2)[n+]([O-])c2ccccc2[n+]1[O-]` are 6.25 µg/mL (≈ 18.3 µM), > 16 and > 100 µg/mL. Turning to `Cc1c(C(=O)CSCCNC(=O)c2ccc3ccccc3c2)[n+]([O-])c2ccccc2[n+]1[O-]`, it took 6.25 µg/mL (≈ 14 µM) to inhibit growth in data set [1] (MIC). For the same molecule, the selectivity ratio in data set [2] is > 16. The half-maximal cytotoxic concentration (CC50) at 72 h in data set [3] was > 100 µg/mL. The molecule `Cc1c(C(=O)CSCCNC(=O)c2ccncc2)[n+]([O-])c2ccccc2[n+]1[O-]` returned an MIC in data set [1] of 6.25 µg/mL (≈ 15.7 µM). Further, the CC50 at 72 h in data set [3] stood at 50 µg/mL (≈ 125 µM). The molecule `Cc1c(C(=O)CSCCO)[n+]([O-])c2ccccc2[n+]1[O-]` came in with an MIC in data set [1] of 50 µg/mL (≈ 170 µM). The same measure, in the same setting: in the case of `Cc1c(C(=O)CSCCN)[n+]([O-])c2ccccc2[n+]1[O-]` it was 50 µg/mL (≈ 170 µM); in that of `Cc1c(C(=O)CNc2nc3ccccc3[nH]2)[n+]([O-])c2ccccc2[n+]1[O-]`, 12.5 µg/mL (≈ 35.8 µM).

In data set [1], `Cc1c(C(=O)CSc2nc3ccccc3s2)[n+]([O-])c2ccccc2[n+]1[O-]` came in with an MIC of 1.56 µg/mL (≈ 4.07 µM). Moreover, the selectivity ratio in data set [2] was found to be 32. For the same molecule, in data set [3], the CC50 at 72 h was 50 µg/mL (≈ 130 µM).

As for `Cc1c(C(=O)CSCCNC(=O)c2ccc(F)cc2)[n+]([O-])c2ccccc2[n+]1[O-]`, 1.56 µg/mL (≈ 3.76 µM) was the least that counted as inhibitory in data set [1] (MIC). In data set [2], the selectivity ratio is > 128. For the same molecule, in data set [3], the CC50 at 72 h was > 100 µg/mL. In the case of `Cc1c(C(=O)CSc2nccs2)[n+]([O-])c2ccccc2[n+]1[O-]`, in data set [1], the MIC stood at 3.13 µg/mL (≈ 9.39 µM). The selectivity ratio in data set [2] was determined as 16. Moreover, the CC50 at 72 h in data set [3] came to 50 µg/mL (≈ 150 µM). The molecule `Cc1ccc(N(C)CC(=O)c2c(C)[n+]([O-])c3ccccc3[n+]2[O-])cc1` registered an MIC in data set [1] of 25 µg/mL (≈ 74.1 µM). Turning to `Cc1c(C(=O)CSc2ccccc2)[n+]([O-])c2ccccc2[n+]1[O-]`, in data set [1], the MIC turned out to be 1.56 µg/mL (≈ 4.78 µM). The selectivity ratio in data set [2] came to 32. Besides, in data set [3], the CC50 at 72 h was 50 µg/mL (≈ 153 µM).

Molecule `COc1ccc(C(=O)NCCSCC(=O)c2c(C)[n+]([O-])c3ccccc3[n+]2[O-])cc1` had an MIC in data set [1] of 3.13 µg/mL (≈ 7.32 µM). In data set [2], the selectivity ratio was > 32. In data set [3], the CC50 at 72 h was > 100 µg/mL.

In the case of `CCN(CC)CC(=O)c1c(C)[n+]([O-])c2ccccc2[n+]1[O-]`, it took 50 µg/mL (≈ 173 µM) to inhibit growth in data set [1] (MIC).

Consider `Cc1c(C(=O)CN2CCN(C)CC2)[n+]([O-])c2ccccc2[n+]1[O-]`, for which the lowest concentration to inhibit growth in data set [1] (MIC) was 50 µg/mL (≈ 158 µM). As to `Cc1c(C(=O)CNc2nccs2)[n+]([O-])c2ccccc2[n+]1[O-]`, inhibition of growth in data set [1] (MIC) required 50 µg/mL (≈ 158 µM). Still for that read-out and setting: as for `Cc1c(C(=O)CSCCNC(=O)[C@@H](N)Cc2ccc(O)cc2)[n+]([O-])c2ccccc2[n+]1[O-]`, the figure is 25 µg/mL (≈ 54.8 µM); as for `Cc1c(C(=O)CN(C)c2ccccc2)[n+]([O-])c2ccccc2[n+]1[O-]`, 25 µg/mL (≈ 77.3 µM).

`Cc1c(C(=O)CSc2nc3ccccc3[nH]2)[n+]([O-])c2ccccc2[n+]1[O-]` returned an MIC in data set [1] of 6.25 µg/mL (≈ 17.1 µM). Also, in data set [2], the selectivity ratio amounted to 16. For the same molecule, the CC50 at 72 h in data set [3] was 100 µg/mL (≈ 273 µM). The molecule `Cc1c(C(=O)CSCCNC(=O)[C@@H](N)Cc2c[nH]c3ccccc23)[n+]([O-])c2ccccc2[n+]1[O-]` yielded an MIC in data set [1] of 6.25 µg/mL (≈ 13 µM). The selectivity ratio in data set [2] is > 16. Also, the CC50 at 72 h in data set [3] is > 100 µg/mL.

For the molecule `Cc1c(C(=O)CSCCNC(=O)c2ccccc2)[n+]([O-])c2ccccc2[n+]1[O-]`, it took 6.25 µg/mL (≈ 15.7 µM) to inhibit growth in data set [1] (MIC). Besides, the selectivity ratio in data set [2] is > 16. The CC50 at 72 h in data set [3] was > 100 µg/mL. `Cc1c(C(=O)CN2CCCCC2)[n+]([O-])c2ccccc2[n+]1[O-]`: the MIC in data set [1] amounted to 25 µg/mL (≈ 83 µM).

`Cc1c(C(=O)CSCCNC(=O)[C@@H](N)C(C)C)[n+]([O-])c2ccccc2[n+]1[O-]` showed an MIC in data set [1] of 25 µg/mL (≈ 63.7 µM). The molecule `Cc1c(C(=O)CN(C)Cc2ccccc2)[n+]([O-])c2ccccc2[n+]1[O-]` gave a minimal inhibitory concentration (MIC) in data set [1] of 50 µg/mL (≈ 148 µM).

`COc1cc(C(=O)NCCSCC(=O)c2c(C)[n+]([O-])c3ccccc3[n+]2[O-])cc(OC)c1OC` showed an MIC in data set [1] of 25 µg/mL (≈ 51.3 µM). In data set [1], `NNC(=O)c1ccncc1` [ISONIAZID] yielded an MIC of 0.2 µg/mL (≈ 1.46 µM).
